Measurements as given in PubChem BioAssay (NCI).
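All cell lines were grown in 96-well plates and treated with compound for 48 hours. GI50 = concentration required for 50% inhibition of growth. TGI: total growth inhibition.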

Legend:
Experiment in all cases: DTP human tumour cell line panel, 48 h
[1] = tested on: UACC-257 melanoma
[2] = tested on: CAKI-1 renal
[3] = tested on: K-562 leukemia
[4] = tested on: HCT-15 colon
[5] = tested on: NCI/ADR-RES ovarian
[6] = tested on: EKVX NSCLC
[7] = tested on: SF-539 CNS
[8] = tested on: UACC-62 melanoma
[9] = tested on: SK-MEL-2 melanoma
[10] = tested on: BT-549 breast

SMILES	TGI [1] [µM]	TGI [2] [µM]	TGI [3] [µM]	TGI [4] [µM]	TGI [5] [µM]	TGI [6] [µM]	TGI [7] [µM]	TGI [8] [µM]	TGI [9] [µM]	TGI [10] [µM]	GI50 [2] [µM]	GI50 [4] [µM]	GI50 [10] [µM]	GI50 [5] [µM]	GI50 [8] [µM]	GI50 [9] [µM]	GI50 [6] [µM]	GI50 [7] [µM]	GI50 [1] [µM]	GI50 [3] [µM]
COc1ccc(NS(=O)c2ccc(-c3ccccc3)cc2)cc1 (centres undefined)	> 100	> 100	> 100	> 100	> 100	> 100	> 100													
CC1SC(c2ccccc2)N(Nc2c3ccccc3nc3ccccc23)C1=O (centres undefined)	> 100	> 100	> 100	> 100		> 100	> 100	> 100	> 100											
COc1ccc(OC)c([N+](=O)[O-])c1-c1nc2sccn2c1/C=N/N=C(N)N	> 100	> 100	> 100	> 100	> 100	> 100	> 100	> 100	93.2	> 100										
COc1cc2cc[n+](C)c(Cc3ccccc3)c2cc1OC	> 100		> 100	> 100		> 100	> 100	> 100	> 100											
CN1CCN(c2ccc(-c3ccc4ncc(C#N)c(Nc5ccc(F)c(Cl)c5)c4c3)cc2)CC1		3.01		3.62	27.9	41.2	4.07	3.75	6.72	17.9	1.01	1.05	3.77	4.57	1.87	2.3	0.838	1.86		
NCC[Se][Se]CCN	20.4	22.8	64	22.1	58	18.1	34.4	31.1	23.2	27.8										
COc1ccc(-c2cc(-c3ccccc3)n(C3OCC(OC(C)=O)C(OC(C)=O)C3OC(C)=O)c(=S)c2C#N)cc1 (centres undefined)	> 100	> 100	> 100	> 100	> 100	> 100	> 100	> 100	> 100	> 100										
Cc1nc2ccccc2c(=O)n1-c1n[nH]c2ccccc12	> 100	> 100	> 100	> 100	> 100	> 100	> 100	> 100	> 100	> 100										
O=C(N/C(=C\c1ccccc1[N+](=O)[O-])c1nc2ccccc2[nH]1)c1ccccc1		> 100	> 100	> 100				> 100	> 100											
O=[N+]([O-])c1ccc(N=Nc2c(O)ccc3cc(S(=O)(=O)O)ccc23)cc1	> 100	> 100	> 100	> 100	> 100	> 100		> 100	> 100	> 100										
CCC(CS(=O)(=O)O)[N+](=O)[O-] (centres undefined)	> 100	> 100	> 100	> 100	> 100	> 100	> 100	> 100	> 100	> 100										
O=C(CCCn1c(=O)c2sc3ccccc3c2n2nnc(-c3ccccc3)c12)NCCc1cnc[nH]1	4.58	1.71		2.51	> 100	8.77	2.19	3.56		41.5	0.181	1.26	17.3	3.22	1.91		2.7	0.664	2.04	
CC(CN(C)C)C(=O)c1ccccc1C(=O)O (centres undefined)		83.9	> 100	> 100	92.6	> 100		51.3	46.9	41.7										
Cc1nc(Cl)c(Cl)c(Cl)n1	1.62		0.0358	1.96	15.3	1.17	2.82	1.46	2.73	0.482										
C=C(C)[C@@H]1CC[C@]2(C)CC[C@]3(C)[C@H](CC[C@@H]4[C@@]5(C)CC[C@H](OC(=O)c6ccccc6)C(C)(C)[C@@H]5CC[C@]43C)[C@@H]12	> 100	> 100	> 100	> 100	> 100	> 100	> 100	> 100	> 100	> 100										
Cn1c(NN)nc(-c2ccc([N+](=O)[O-])cc2)c(C#N)c1=O	29.1	61.6	> 100	42.4	> 100	44.1		29	41.3	25.5										
CNC(C)Cc1ccccc1O (centres undefined)	> 100	> 100	> 100	> 100		> 100	> 100	> 100	> 100											
Nc1ccc2c(c1)C1=NNC(=O)CC1C2 (centres undefined)	> 100	> 100	> 100	> 100	> 100	> 100	> 100	> 100	> 100											
COc1cc(-c2n/c(=C\c3c(O)[nH]c4ccc(Cl)cc34)cc3c2=Nc2ccccc2-3)cc(OC)c1OC		6.72	10.1	8.44	7.55	18.7	4.91	3.42	4.9	7.45	1.97	1.56	2.43	2.01	1.8	2.21	3.59	2.32		0.728
